In patent publication US12016881B2, “Methods and reagents for modulating macrophage phenotype” (NEW YORK UNIVERSITY, priority 2016, dated 2024):

Key:
Assay type in all cases: cell-based, mouse
RAW 264.7 cells [1] = assay: Gene expression analysis (qPCR) of M1 cytokines and Inos; conditions: for effect on nab-paclitaxel-dependent M1 cytokine expression: co-treatment with nab-paclitaxel
Method: Cell lines and cell culture treatments. All cells were maintained under 5% CO2 at 37° C. and cultured in DMEM (Gibco) supplemented with 10% FBS (Gibco), penicillin and streptomycin (Gibco), and 25 mmol/L HEPES (Gibco). Mouse RAW 264.7 cells were obtained from the American Type Culture Collection (2014, ATCC TIB-71). Mouse KPC cells were a kind gift from Dr. R. H. Vonderheide (2013) and generated as previously described (Lo et al., “Tumor-Promoting Desmoplasia Is Disrupted by Depleting FAP-Expressing Stromal Cells,” Cancer Res. 75:2800-10 (2015), which is hereby incorporated by reference in its entirety). Cell lines were not authenticated and were tested for mycoplasma contamination every 3 months by DAPI stain of cells grown for 1 week in the absence of antibiotics. KPC and RAW 264.7 were propagated for 2 to 3 passages (approximately 1 week) prior to use in all experiments and were kept in culture for no longer than 1 month. Recombinant mouse interferon gamma IFNγ was purchased from R&D Systems (CN 485 MI/CF), LPS (L2630), and paclitaxel (T7402) were purchased from Sigma-Aldrich, CLI-095 was purchased from Invivogen (TLRL-CLI95), BAPTA-AM was purchased from Life Technologies (B6769), and 5-(N-ethyl-N-isopropyl) amiloride (EIPA) was purchased from Invitrogen Molecular Probes (e-3111). Reagents were used at concentrations of 5 ng/mL (IFNγ), 20 ng/mL (LPS), […] (paclitaxel), 500 nmol/L (CLI-095), […] (BAPTA-AM), and […] (EIPA) unless indicated otherwise. Tetramethylrhodamine (TMR)-labeled dextran was purchased from Invitrogen (D1822). Nab-paclitaxel (Abraxane; Abraxis BioScience) pharmaceutical grade powder was purchased through the NYU Langone Medical Center pharmacy and used at a concentration of […] for in vitro experiments.
Gene expression analysis. For in vitro qPCR analysis, total RNAwas harvested 2 hours (IL1α, IL1β, IL6, TNFα, and iNOS) or 8 hours (IL12β) after cell culture treatments, using the QIAGEN RNA extraction Kit (QIAGEN). For in vivo gene expression analysis, the CD45 F4/80 double-positive population was sorted directly into TRIzol LS Reagent (Thermo-FisherScientific; CN 10296) from dissociated orthotopic tumors 48 hours after treatment, and total RNA was purified according to the manufacturer's protocol. Purified RNA ([…]) was reverse-transcribed using the QuantiTect Reverse Transcription Kit (QIAGEN), and 1 of 10 of cDNA mixture (in vitro experiments) or 1 of 3 of cDNA mixture (in vivo experiments) was used for qPCR reaction. Primers were obtained from Integrated DNA Technologies (IDT) with the following sequences (5′-3′): Il1α (Forward) […] (SEQ ID NO: 2), (Reverse) […] (SEQ ID NO: 3); Il1β (Forward) […] (SEQ ID NO: 4), (Reverse) […] (SEQ ID NO: 5); Il6 (Forward) […]-[…] (SEQ ID NO: 6), (Reverse) […] (SEQ ID NO: 7); Inos (Forward) […] (SEQ ID NO: 8), (Reverse) […] (SEQ ID NO: 9); Tnfα (Forward) […] (SEQ ID NO: 10), (Reverse) […] (SEQ ID NO: 11); Il12b (IIl12 p40) (Forward) […] (SEQ ID NO: 12), (Reverse) […]-[…] (SEQ ID NO: 13); Gapdh (Forward) […] (SEQ ID NO: 14), (Reverse) […] (SEQ ID NO: 15); Rps29 […] (SEQ ID NO: 16) (Forward), […]-GCGTACT (SEQ ID NO: 17) (Reverse).

RAW 264.7 cells [2] = assay: Western blot analysis of M1 cytokine and iNOS protein expression
Method: (§1) Cell lines and cell culture treatments. All cells were maintained under 5% CO2 at 37° C. and cultured in DMEM (Gibco) supplemented with 10% FBS (Gibco), penicillin and streptomycin (Gibco), and 25 mmol/L HEPES (Gibco). Mouse RAW 264.7 cells were obtained from the American Type Culture Collection (2014, ATCC TIB-71). Mouse KPC cells were a kind gift from Dr. R. H. Vonderheide (2013) and generated as previously described (Lo et al., “Tumor-Promoting Desmoplasia Is Disrupted by Depleting FAP-Expressing Stromal Cells,” Cancer Res. 75:2800-10 (2015), which is hereby incorporated by reference in its entirety). Cell lines were not authenticated and were tested for mycoplasma contamination every 3 months by DAPI stain of cells grown for 1 week in the absence of antibiotics. KPC and RAW 264.7 were propagated for 2 to 3 passages (approximately 1 week) prior to use in all experiments and were kept in culture for no longer than 1 month. Recombinant mouse interferon gamma IFNγ was purchased from R&D Systems (CN 485 MI/CF), LPS (L2630), and paclitaxel (T7402) were purchased from Sigma-Aldrich, CLI-095 was purchased from Invivogen (TLRL-CLI95), BAPTA-AM was purchased from Life Technologies (B6769), and 5-(N-ethyl-N-isopropyl) amiloride (EIPA) was purchased from Invitrogen Molecular Probes (e-3111). […]

RAW 264.7 cells [3] = assay: Macropinocytosis assay: OG-nab-paclitaxel internalization by macrophages; conditions: 30 minute pretreatment with inhibitor or blocking antibody
Method: as §1

[4] = nab-ptx in combination with IFNγ

Compound	effect on nab-paclitaxel-dependent M1 cytokine expression (RAW 264.7 cells [1])	effect on nab-paclitaxel and LPS-dependent iNOS protein expression (RAW 264.7 cells [2]; with IFNγ)	effect on LPS-dependent Il1α, Il1β, Il6, Il12b, and Tnfα gene expression (RAW 264.7 cells [1]; TLR4 inhibitor with LPS)	effect on nab-paclitaxel-dependent Il1α, Il1β, Il6, Il12b, and Tnfα gene expression (RAW 264.7 cells [1]; TLR4 inhibitor with nab-ptx)	effect on nab-paclitaxel-driven iNOS protein expression (RAW 264.7 cells [2]; [4])	effect on nab-paclitaxel-driven iNOS gene expression (RAW 264.7 cells [1]; [4])	effect on OG-nab-paclitaxel internalization (RAW 264.7 cells [3])
CC(=O)OCOC(=O)CN(CC(=O)OCOC(C)=O)c1ccccc1OCCOc1ccccc1N(CC(=O)OCOC(C)=O)CC(=O)OCOC(C)=O [BAPTA-AM]	inhibited						
CCOC(=O)C1=CCCC[C@H]1S(=O)(=O)Nc1ccc(F)cc1Cl [CLI-095]		abrogated	abrogated	abrogated			
CCN(c1nc(N)c(C(=O)N=C(N)N)nc1Cl)C(C)C [EIPA, 5-(N-ethyl-N-isopropyl) amiloride]	inhibited				partially inhibited	partially inhibited	reduced
